From US7868177B2, “Multi-cyclic compounds and method of use” (Amgen Inc., priority 2006, dated 2011)

Biological target: T1, AuroraA-TPX2 (Homo sapiens, UniProt O14965)
T1 construct: 20 μL of AuroraA-TPX2 KD GST for a final volume of 41 μL; GST
T1 sequence (O14965 133-383 limits assumed): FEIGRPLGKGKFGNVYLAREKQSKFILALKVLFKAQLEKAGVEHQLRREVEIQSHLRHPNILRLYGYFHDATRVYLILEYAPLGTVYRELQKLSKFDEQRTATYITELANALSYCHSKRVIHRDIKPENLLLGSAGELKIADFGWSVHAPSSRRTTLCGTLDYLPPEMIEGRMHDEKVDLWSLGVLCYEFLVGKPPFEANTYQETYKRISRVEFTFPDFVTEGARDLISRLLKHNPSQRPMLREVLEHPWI
T1 sequence (Q9ULW0 1-43 partner limits assumed): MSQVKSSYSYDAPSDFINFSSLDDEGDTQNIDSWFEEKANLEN
Assay: AuroraA-TPX2 HTRF kinase assay (Aurora kinase A HTRF assay)
Type: biochemical
Method: AuroraA-TPX2-Homogeneous Time Resolved Fluorescent (HTRF) Kinase Assay:
The AuroraA HTRF assay begins with AuroraA in the presence of ATP phosphorylating the biotinylated peptide PLK. The reaction incubates for about 120 min. Detection reagents are added to quench the reaction. These agents stop the reaction by diluting out the enzyme and chelating the metals due to the presence of EDTA. After addition, the assay is incubated overnight to allow the detection reagents to equilibrate.
The AuroraA HTRF assay comprises 1 μL of compound in 100% DMSO, 20 μL of ATP and biotinylated PLK, and 20 μL of AuroraA-TPX2 KD GST for a final volume of 41 μL. The final concentration of PLK is about 1 μM. […] Buffer conditions are as follows: 60 mM HEPES pH 7.5, 25 mM NaCl, 10 mM MgCl, 2 mM DTT, 0.05% BSA.
The assay is quenched and stopped with 160 μL of detection reagent. Detection reagents are as follows: Buffer made of 50 mM Tris, pH 7.5, 100 mM NaCl, 3 mM EDTA, 0.05% BSA, 0.1% Tween20. Added to this buffer prior to reading is Steptavidin allophycocyanin (SA-APC) at a final conc in the assay of 0.0005 mg/mL, and europilated anti-phosphoPLK Ab (Eu-anti-PLK) at a final conc of 0.02 nM.
The assay plate is read in either a Discovery or a RubyStar. The eu-anti-PLK is excited at 320 nm and emits at 615 nm to excite the SA-APC which in turn emits at 655 nm. The ratio of SA-APC at 655 nm (excited due to close proximity to the Eu-anti-PLK because of phosphorylation of the peptide) to free Eu-anti-PLK at 615 nm will give substrate phosphorylation.

IC50 | Compound
≤ 5 µM | CN1CCCC1CCNc1nccc(-c2cccnc2Oc2ccc(Nc3nc4ccccc4[nH]3)c3ccccc23)n1 (stereo not drawn) [Example 46, N-(4-((3-(2-((2-(1-methyl-2-pyrrolidinyl)ethyl)amino)-4-pyrimidinyl)-2-pyridinyl)oxy)-1-naphthalenyl)-1H-benzimidazol-2-amine]
≤ 5 µM | Cc1ccc2nc(Nc3ccc(Oc4ncccc4-c4ccncn4)c(C)c3)oc2c1 [Example 48, 6-methyl-N-(3-methyl-4-((3-(4-pyrimidinyl)-2-pyridinyl)oxy)phenyl)-1,3-benzoxazol-2-amine]
≤ 5 µM | Cn1cc(-c2ccccc2)nc1Nc1ccc(Oc2ncccc2-c2ccnc(N)n2)cc1 [Example 115, 4-(2-((4-((1-methyl-4-phenyl-1H-imidazol-2-yl)amino)phenyl)oxy)-3-pyridinyl)-2-pyrimidinamine]
